Source: ChEMBL document CHEMBL5131531, “Small Molecule Inhibitors of TET Dioxygenases: Bobcat339 Activity Is Mediated by Contaminating Copper(II)” (ACS Med Chem Lett, 2022)
Calls of active or inactive are those of the source.

Legend:
[1] = biological target: Methylcytosine dioxygenase TET2 (Homo sapiens) (UniProt Q6N021); assay: Inhibition of recombinant human TET2 catalytic domain assessed as reduction of 5hmC formation at 125 uM using hemi-methylated synthetic oligomer 5'-AATTAGAA[5meC]GCTCCTT-3' as substrate incubated for 30 mins by LC-MS method
[2] = biological target: Methylcytosine dioxygenase TET1 (Homo sapiens) (UniProt Q8NFU7); assay: Inhibition of recombinant human TET1 catalytic domain assessed as reduction of 5hmC formation at 25 uM incubated for 30 mins by HPLC-ESI-MS/MS method
Sequence of Methylcytosine dioxygenase TET1 (Homo sapiens) (Q8NFU7 whole entry, the tested form may be a part): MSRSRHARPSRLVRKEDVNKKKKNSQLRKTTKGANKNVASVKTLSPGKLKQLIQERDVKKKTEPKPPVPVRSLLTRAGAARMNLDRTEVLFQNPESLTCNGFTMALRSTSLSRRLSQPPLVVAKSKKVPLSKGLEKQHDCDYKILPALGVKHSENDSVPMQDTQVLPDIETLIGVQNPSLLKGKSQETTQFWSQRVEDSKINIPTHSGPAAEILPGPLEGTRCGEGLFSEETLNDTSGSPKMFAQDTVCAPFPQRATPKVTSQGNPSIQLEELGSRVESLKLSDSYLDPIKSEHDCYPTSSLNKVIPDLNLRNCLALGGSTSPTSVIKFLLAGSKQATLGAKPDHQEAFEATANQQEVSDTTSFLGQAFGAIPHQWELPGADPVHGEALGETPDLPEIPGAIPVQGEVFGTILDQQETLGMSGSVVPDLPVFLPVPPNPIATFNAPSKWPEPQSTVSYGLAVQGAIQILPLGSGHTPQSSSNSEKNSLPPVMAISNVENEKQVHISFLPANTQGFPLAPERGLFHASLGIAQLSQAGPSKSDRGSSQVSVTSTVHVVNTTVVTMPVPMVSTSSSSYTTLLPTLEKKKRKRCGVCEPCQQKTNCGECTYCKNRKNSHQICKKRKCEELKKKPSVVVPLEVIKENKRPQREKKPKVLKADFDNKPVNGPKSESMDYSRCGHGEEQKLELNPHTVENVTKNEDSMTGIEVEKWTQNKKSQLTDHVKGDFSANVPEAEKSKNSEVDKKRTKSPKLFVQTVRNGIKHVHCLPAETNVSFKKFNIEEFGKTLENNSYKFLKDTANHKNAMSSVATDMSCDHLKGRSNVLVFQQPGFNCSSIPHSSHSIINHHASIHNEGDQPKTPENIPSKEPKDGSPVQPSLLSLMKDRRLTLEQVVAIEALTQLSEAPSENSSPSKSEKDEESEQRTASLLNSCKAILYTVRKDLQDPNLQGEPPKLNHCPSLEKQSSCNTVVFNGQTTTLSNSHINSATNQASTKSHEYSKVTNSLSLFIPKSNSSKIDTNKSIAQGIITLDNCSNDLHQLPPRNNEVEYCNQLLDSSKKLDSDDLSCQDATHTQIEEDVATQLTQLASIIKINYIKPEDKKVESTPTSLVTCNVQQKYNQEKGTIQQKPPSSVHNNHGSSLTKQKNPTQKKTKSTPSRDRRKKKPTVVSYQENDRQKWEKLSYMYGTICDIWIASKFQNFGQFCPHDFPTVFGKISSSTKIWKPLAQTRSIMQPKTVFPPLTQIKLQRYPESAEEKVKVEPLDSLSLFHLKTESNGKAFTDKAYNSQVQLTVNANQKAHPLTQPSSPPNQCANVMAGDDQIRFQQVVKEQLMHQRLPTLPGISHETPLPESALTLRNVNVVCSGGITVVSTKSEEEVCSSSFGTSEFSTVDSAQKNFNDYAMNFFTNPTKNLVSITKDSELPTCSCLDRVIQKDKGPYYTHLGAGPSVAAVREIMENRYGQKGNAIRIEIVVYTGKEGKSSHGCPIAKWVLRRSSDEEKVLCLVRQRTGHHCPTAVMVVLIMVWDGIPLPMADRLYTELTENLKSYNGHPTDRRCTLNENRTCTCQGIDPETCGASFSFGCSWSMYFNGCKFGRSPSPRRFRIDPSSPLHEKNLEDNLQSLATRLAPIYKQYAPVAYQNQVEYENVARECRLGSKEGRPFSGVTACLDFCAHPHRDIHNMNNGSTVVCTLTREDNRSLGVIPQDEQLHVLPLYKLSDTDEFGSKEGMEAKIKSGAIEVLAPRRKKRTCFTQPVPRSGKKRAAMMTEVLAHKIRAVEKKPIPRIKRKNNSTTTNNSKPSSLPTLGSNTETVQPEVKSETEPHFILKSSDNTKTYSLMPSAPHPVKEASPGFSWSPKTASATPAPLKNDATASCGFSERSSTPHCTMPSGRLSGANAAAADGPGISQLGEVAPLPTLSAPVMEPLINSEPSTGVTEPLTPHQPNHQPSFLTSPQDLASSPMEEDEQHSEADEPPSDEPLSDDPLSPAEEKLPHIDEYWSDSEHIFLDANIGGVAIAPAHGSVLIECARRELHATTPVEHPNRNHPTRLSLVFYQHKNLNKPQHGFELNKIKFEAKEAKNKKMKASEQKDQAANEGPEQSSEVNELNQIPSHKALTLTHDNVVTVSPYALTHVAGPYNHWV

[3] = biological target: Methylcytosine dioxygenase TET1 (Homo sapiens) (UniProt Q8NFU7); assay: Inhibition of recombinant human TET1 catalytic domain assessed as reduction of 5hmC formation at 125 uM using hemi-methylated synthetic oligomer 5'-AATTAGAA[5meC]GCTCCTT-3' as substrate incubated for 30 mins by LC-MS method
[4] = biological target: Methylcytosine dioxygenase TET1 (Homo sapiens) (UniProt Q8NFU7); assay: Inhibition of recombinant human TET1 assessed as reduction of 5hmC formation at 0.01 to 125 uM incubated for 30 mins in presence of 1 uM CuSO4 by HPLC-ESI-MS/MS method; settings: dose 0.01-125 µM
[5] = biological target: Methylcytosine dioxygenase TET1 (Homo sapiens) (UniProt Q8NFU7); assay: Inhibition of recombinant human TET1 assessed as reduction of 5hmC formation at 0.01 to 125 uM incubated for 30 mins in presence of 4 uM CuSO4 by HPLC-ESI-MS/MS method; settings: dose 0.01-125 µM
[6] = biological target: Methylcytosine dioxygenase TET1 (Homo sapiens) (UniProt Q8NFU7); assay: Inhibition of recombinant human TET1 catalytic domain assessed as reduction of 5hmC formation at 125 uM using hemi-methylated synthetic oligomer 5'-AATTAGAA[5meC]GCTCCTT-3' as substrate incubated for 30 mins in presence of CuSO4 by LC-MS method

Measured: inhibition

CUPRIC SULFATE
active: [1] | [2] | [3]

Nc1nc(=O)n(-c2cccc(-c3ccccc3)c2)cc1Cl
active: [4] | [5] | [6] | [2] | [3]
